In patent publication US11986471B2, “Compounds and methods of use” (Tango Therapeutics, Inc., priority 2018, dated 2024):

Tests used:
HAP1 MTAP-deleted = experiment: SDMA in-cell western assay, HAP1 MTAP-deleted cell line; format: cell-based; conditions: for IC50: Homo sapiens, HAP1 MTAP-deleted cell line; for MTAP Intact/Deleted Ratio: IC50 ratio HAP1 MTAP-intact / HAP1 MTAP-deleted
Method in brief: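 In-cell western for SDMA marks; MTAP-deleted (null) HAP1 background; values given as IC50.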

HAP1 MTAP-intact = experiment: SDMA in-cell western assay, HAP1 MTAP-intact cell line; format: cell-based; conditions: Homo sapiens
Method in brief: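 Using an MTAP-isogenic HAP1 cell pair, inhibition of SDMA formation is read by in-cell western and expressed as IC50. MTAP-selectivity is assigned where the ratio between lines reaches 3 fold or greater.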

PRMT5 [1] = target: T1, PRMT5 (Homo sapiens, UniProt O14744); experiment: PRMT5 IC50 assay in the presence of MTA as cofactor; format: biochemical; conditions: for IC50: PRMT5, MTA as cofactor
T1 construct: purchased Viva (custom protein)
T1 sequence (O14744 whole entry): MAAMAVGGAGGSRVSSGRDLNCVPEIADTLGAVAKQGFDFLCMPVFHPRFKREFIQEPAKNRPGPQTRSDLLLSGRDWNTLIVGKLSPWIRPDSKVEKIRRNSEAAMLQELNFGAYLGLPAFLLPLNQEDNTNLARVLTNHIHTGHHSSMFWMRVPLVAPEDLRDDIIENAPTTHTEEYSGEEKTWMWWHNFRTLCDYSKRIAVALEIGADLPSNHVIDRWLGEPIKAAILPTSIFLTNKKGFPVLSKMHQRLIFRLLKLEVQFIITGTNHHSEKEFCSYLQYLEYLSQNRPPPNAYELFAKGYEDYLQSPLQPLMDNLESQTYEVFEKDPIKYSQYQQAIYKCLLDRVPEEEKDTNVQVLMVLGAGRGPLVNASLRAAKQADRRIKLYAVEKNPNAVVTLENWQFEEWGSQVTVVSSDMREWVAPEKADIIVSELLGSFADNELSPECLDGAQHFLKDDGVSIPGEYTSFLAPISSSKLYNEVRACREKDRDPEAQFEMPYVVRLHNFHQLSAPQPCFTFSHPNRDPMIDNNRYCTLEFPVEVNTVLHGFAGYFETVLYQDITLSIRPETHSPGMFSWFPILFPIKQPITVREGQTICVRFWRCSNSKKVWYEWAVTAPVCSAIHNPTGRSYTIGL
T1 sequence (Q9BQA1 whole entry partner): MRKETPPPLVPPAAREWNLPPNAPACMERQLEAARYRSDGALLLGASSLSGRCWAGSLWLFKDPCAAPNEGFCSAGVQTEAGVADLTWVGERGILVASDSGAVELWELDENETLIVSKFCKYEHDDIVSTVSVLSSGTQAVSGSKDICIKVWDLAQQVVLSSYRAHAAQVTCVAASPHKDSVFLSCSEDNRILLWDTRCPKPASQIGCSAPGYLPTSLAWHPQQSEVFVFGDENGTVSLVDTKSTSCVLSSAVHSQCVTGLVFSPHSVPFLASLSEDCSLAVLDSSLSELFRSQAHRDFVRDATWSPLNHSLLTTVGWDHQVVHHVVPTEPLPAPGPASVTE
Method in brief: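 Three cofactor conditions are run: SAM-bound, MTA-bound and cofactor-free enzyme. IC50 is read from each; for the SAM and MTA arms it is divided by 1.5 and 13.5 respectively to give Ki.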

PRMT5 [2] = target: T1, PRMT5; experiment: PRMT5 IC50 assay with no cofactor; format: biochemical
Method in brief: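 Each compound is tested on PRMT5 in the presence of SAM, of MTA, and without any cofactor. Ki values are then back-calculated using fixed factors of 1.5 (SAM) and 13.5 (MTA), and the two Ki values are compared as a ratio.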

PRMT5 [3] = target: T1, PRMT5; experiment: PRMT5 IC50 assay in the presence of SAM as cofactor; format: biochemical
Method in brief: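 IC50 against PRMT5 determined with SAM as cofactor, with no cofactor, and with MTA as cofactor. Ki derived as IC50/1.5 for the SAM assay and IC50/13.5 for the MTA assay; SAM Ki to MTA Ki ratio also reported.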

[4] = ratio between the Ki in the presence of SAM and the Ki in the presence of MTA
[5] = ratio between Ki in the presence of SAM and Ki in the presence of MTA

SMILES	IC50 (HAP1 MTAP-deleted) [µM]	IC50 (HAP1 MTAP-intact) [µM]	IC50 (PRMT5 [1]) [µM]	IC50 (PRMT5 [2]) [µM]	IC50 (PRMT5 [3]) [µM]	IC50 (PRMT5 [2]; read-out: No Co-factor IC50) [µM]	MTAP Intact/Deleted Ratio (HAP1 MTAP-deleted)	SAM/MTA Ratio (PRMT5 [1]; [4])	SAM/MTA Ratio (PRMT5 [1]; [5])
Cc1ncoc1COc1ccc2c(c1C)CCN(C[C@@H](O)CNC(=O)c1cc(NC3COC3)nc(N3CCN(C)CC3)n1)C2 [Compound 456, N-[(2S)-2-hydroxy-3-{5-methyl-6-[(4-methyl-1,3-oxazol-5-yl)methoxy]-1,2,3,4-tetrahydroisoquinolin-2-yl}propyl]-2-(4-methylpiperazin-1-yl)-6-[(oxetan-3-yl)amino]pyrimidine-4-carboxamide]	1 to 10	≥ 10	0.05 to 0.5	≥ 5	0.05 to 0.5		C* (an IC50 ratio of less than 3 fold between the IC50 in the HAP1 MTAP-intact cell line and the HAP1 MTAP-deleted cell line)	A (a Ki ratio greater than or equal to 10 fold between the Ki in the presence of SAM and the Ki in the presence of MTA)	
O=C(NC[C@H](O)CN1CCc2c(ccc(OCc3cnco3)c2Cl)C1)c1ccnc(NC2CCC(F)(F)CC2)c1 [Compound 425, (S)—N-(3-(5-chloro-6-(oxazol-5-ylmethoxy)-3,4-dihydroisoquinolin-2(1H)-yl)-2-hydroxypropyl)-2-((4N-difluorocyclohexyl)amino)isonicotinamide]	≥ 10	≥ 10	0.05 to 0.5		0.05 to 0.5	≥ 5	C* (an IC50 ratio of less than 3 fold between the IC50 in the HAP1 MTAP-intact cell line and the HAP1 MTAP-deleted cell line)		A (a Ki ratio greater than or equal to 10 fold between the Ki in the presence of SAM and the Ki in the presence of MTA)
Cc1c(OCc2cnco2)ccc2c1CCN(C[C@@H](O)CNC(=O)c1cc(N[C@H]3CC[C@H](C(=O)N4CCCCC4)CC3)ncn1)C2 [Compound 589, N-[(2S)-2-hydroxy-3-{5-methyl-6-[(1,3-oxazol-5-yl)methoxy]-1,2,3,4-tetrahydroisoquinolin-2-yl}propyl]-6-{((1r,4r)-4-(piperidine-1-carbonyl)cyclohexyl]amino}pyrimidine-4-carboxamide]	< 1	≥ 10	0.05 to 0.5	0.5 to 5	0.05 to 0.5		A* (an IC50 ratio greater than or equal to 10 fold between the IC50 in the HAP1 MTAP-intact cell line and the HAP1 MTAP-deleted cell line)	A (a Ki ratio greater than or equal to 10 fold between the Ki in the presence of SAM and the Ki in the presence of MTA)	
O=C(NC[C@H](O)CN1CCc2cc(OCc3cnco3)ccc2C1)c1cc(NC2COC2)nc(N2CCOCC2)n1 [Compound 304, (S)—N-(2-hydroxy-3-(6-(oxazol-5-ylmethoxy)-3N-dihydroisoquinolin-2(1H)-yl)propyl)-2-morpholino-6-(oxetan-3-ylamino)pyrimidine-4-carboxamide]	1 to 10	1 to 10	0.05 to 0.5		0.05 to 0.5	0.5 to 5	C* (an IC50 ratio of less than 3 fold between the IC50 in the HAP1 MTAP-intact cell line and the HAP1 MTAP-deleted cell line)		
CC(=O)N1CC(Nc2cc(C(=O)NC[C@H](O)CN3CCc4c(ccc(OCc5ocnc5C)c4C)C3)nc(N3CCOCC3)n2)C1 [Compound 574, 6-[(1-acetylazetidin-3-yl)amino]-N-[(2S)-2-hydroxy-3-{5-methyl-6-[(4-methyl-1,3-oxazol-5-yl)methoxy]-1,2,3,4-tetrahydroisoquinolin-2-yl}propyl]-2-(morpholin-4-yl)pyrimidine-4-carboxamide]	1 to 10	≥ 10	0.05 to 0.5	≥ 5	0.05 to 0.5		C* (an IC50 ratio of less than 3 fold between the IC50 in the HAP1 MTAP-intact cell line and the HAP1 MTAP-deleted cell line)	A (a Ki ratio greater than or equal to 10 fold between the Ki in the presence of SAM and the Ki in the presence of MTA)	
CC(=O)N1CCC(Nc2cc(C(=O)NC[C@H](O)CN3CCc4c(ccc(OCc5cnn[nH]5)c4Cl)C3)ncn2)CC1 [Compound 343, 6-[(1-acetyl-4-piperidyl)amino]-N-[(2S)-3-[5-chloro-6-(1H-triazol-5-ylmethoxy)-3,4-dihydro-1H-isoquinolin-2-yl]-2-hydroxy-propyl]pyrimidine-4-carboxamide]	1 to 10	≥ 10	0.5 to 5		0.5 to 5	≥ 5	C* (an IC50 ratio of less than 3 fold between the IC50 in the HAP1 MTAP-intact cell line and the HAP1 MTAP-deleted cell line)		A (a Ki ratio greater than or equal to 10 fold between the Ki in the presence of SAM and the Ki in the presence of MTA)

Further lines, with some results ahead:

IC50 (HAP1 MTAP-deleted) [µM]	IC50 (HAP1 MTAP-intact) [µM]	IC50 (PRMT5 [1]) [µM]	IC50 (PRMT5 [2]) [µM]	IC50 (PRMT5 [3]) [µM]	IC50 (PRMT5 [2]; read-out: No Co-factor IC50) [µM]	SMILES	MTAP Intact/Deleted Ratio (HAP1 MTAP-deleted)	SAM/MTA Ratio (PRMT5 [1]; [4])	SAM/MTA Ratio (PRMT5 [1]; [5])
< 1	1 to 10	0.05 to 0.5		0.05 to 0.5	0.5 to 5	Cc1ncoc1COc1ccc2c(c1)CCN(C[C@@H](O)CNC(=O)c1cc(NC3COC3)nc(N3CCN(C(C)(C)C)CC3)n1)C2 [Compound 396, 2-(4-tert-butylpiperazin-1-yl)-N-[(2S)-2-hydroxy-3-(6-[(4-methyl-1,3-oxazol-5-yl)methoxy]-1,2,3,4-tetrahydroisoquinolin-2-yl}propyl]-6-[(oxetan-3-yl)amino]pyrimidine-4-carboxamide]	C* (an IC50 ratio of less than 3 fold between the IC50 in the HAP1 MTAP-intact cell line and the HAP1 MTAP-deleted cell line)		A (a Ki ratio greater than or equal to 10 fold between the Ki in the presence of SAM and the Ki in the presence of MTA)
1 to 10	1 to 10	< 0.05	0.05 to 0.5	0.05 to 0.5		Cc1ncoc1COc1ccc2c(c1)CCN(C[C@@H](O)CNC(=O)c1cc(NC3CC4(CCC4)C3)nc(N3CCN(C(=O)C4CC4)CC3)c1)C2 [Compound 610, (S)-2-(4-(cyclopropanecarbonyl)piperazin-1-yl)-N-(2-hydroxy-3-(6-((4-methyloxazol-5-yl)methoxy)-3,4-dihydroisoquinolin-2(1H)-yl)propyl)-6-(spiro[3.3]heptan-2-ylamino)isonicotinamide]	C* (an IC50 ratio of less than 3 fold between the IC50 in the HAP1 MTAP-intact cell line and the HAP1 MTAP-deleted cell line)	A (a Ki ratio greater than or equal to 10 fold between the Ki in the presence of SAM and the Ki in the presence of MTA)	
< 1	1 to 10	0.05 to 0.5	0.5 to 5	0.05 to 0.5		Cc1ncoc1COc1ccc2c(c1)CCN(C[C@@H](O)CNC(=O)c1cc(NC3CCC3)ncc1F)C2 [Compound 614, (S)-2-(cyclobutylamino)-5-fluoro-N-(2-hydroxy-3-(6-((4-methyloxazol-5-yl)methoxy)-3,4-dihydroisoquinolin-2(1H)-yl)propyl)isonicotinamide]	C* (an IC50 ratio of less than 3 fold between the IC50 in the HAP1 MTAP-intact cell line and the HAP1 MTAP-deleted cell line)	A (a Ki ratio greater than or equal to 10 fold between the Ki in the presence of SAM and the Ki in the presence of MTA)	
≥ 10	≥ 10	0.05 to 0.5	≥ 5	0.5 to 5		CCN(C)c1cc(C(=O)NC[C@H](O)CN2CCc3c(ccc(OCc4ocnc4C)c3C)C2)cc(NC2CCC2)n1 [Compound 478, 2-(cyclobutylamino)-6-[ethyl(methyl)amino]-N-[(2S)-2-hydroxy-3-{5-methyl-6-[(4-methyl-1,3-oxazol-5-yl)methoxy]-1,2,3,4-tetrahydroisoquinolin-2-yl}propyl]pyridine-4-carboxamide]	C* (an IC50 ratio of less than 3 fold between the IC50 in the HAP1 MTAP-intact cell line and the HAP1 MTAP-deleted cell line)	A (a Ki ratio greater than or equal to 10 fold between the Ki in the presence of SAM and the Ki in the presence of MTA)	
≥ 10	≥ 10	0.5 to 5		0.5 to 5	≥ 5	O=C(NC[C@H](O)CN1CCc2c(ccc(OCc3cnco3)c2Br)C1)c1cc(NC2CCCC2)ncn1 [Compound 337]	C* (an IC50 ratio of less than 3 fold between the IC50 in the HAP1 MTAP-intact cell line and the HAP1 MTAP-deleted cell line)		A (a Ki ratio greater than or equal to 10 fold between the Ki in the presence of SAM and the Ki in the presence of MTA)
≥ 10	≥ 10	0.05 to 0.5		0.5 to 5	≥ 5	COc1cc(C(=O)NC[C@H](O)CN2CCc3c(ccc(OCc4cnco4)c3Cl)C2)cc(NC2CCC2)n1 [Compound 302, (S)—N-(3-(5-chloro-6-(oxazol-5-ylmethoxy)-3N-dihydroisoquinolin-2(1H)-yl)-2-hydroxypropyl)-2-(cyclobutylamino)-6-methoxyisonicotinamide]	C* (an IC50 ratio of less than 3 fold between the IC50 in the HAP1 MTAP-intact cell line and the HAP1 MTAP-deleted cell line)		A (a Ki ratio greater than or equal to 10 fold between the Ki in the presence of SAM and the Ki in the presence of MTA)
